Measurements published in patent publication US8822517B2, “Arylosulfonamides for the treatment of CNS diseases” (Adamed SP. Z O.O., priority 2010, dated 2014).
Like-named read-outs stand apart in the source and are kept apart here.

Tests used:
dopaminergic D3 receptor = dopaminergic D3 receptor (Homo sapiens, UniProt P35462); assay: Binding assay D3 (h), [3H]methyl-spiperone, CHO cells; set-up: expressed in transfected cells; host or cells: CHO cells; conditions: read-out: D3 [%]
Method in brief: (§1)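 Binding read by scintillation counting. Non-specific component defined by excess unlabelled ligand and removed from total counts. Compounds at 1×10^−6 M.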

[1] = biological target: T1, serotoninergic 5-HT6 receptor (Homo sapiens, UniProt P50406); assay: Binding assay 5-HT6 (h), [3H]LSD, CHO cells; set-up: expressed in transfected cells; host or cells: CHO cells; conditions: read-out: 5-HT6
Method in brief: as §1

[2] = biological target: T1, serotoninergic 5-HT6 receptor; assay: Cellular functional assay, serotoninergic 5-HT6 receptor (agonism/antagonism); format: cell-based; conditions: for activation at 1 µM: agonist effect, percent of control specific agonist response, compounds tested at 1×10^−6M, read-out: 5-HT6-ag [%]; for inhibition at 1 µM: read-out: 5-HT6-antag. [%]
Protocol: (§2) The compounds were tested at the concentration of 1×10^−6M.
(§3) In the Tables ag refers to agonism, and antag to antagonism).

adrenergic α2C receptor = biological target: T2, adrenergic α2C receptor (Homo sapiens, UniProt P18825); assay: Cellular functional assay, adrenergic α2C receptor (agonism/antagonism); format: cell-based; conditions: for activation at 1 µM: agonist effect, percent of control specific agonist response, compounds tested at 1×10^−6M, read-out: α2C −ag [%]; for inhibition at 1 µM: read-out: α2C −antag. [%]
T2 sequence (P18825 1-462): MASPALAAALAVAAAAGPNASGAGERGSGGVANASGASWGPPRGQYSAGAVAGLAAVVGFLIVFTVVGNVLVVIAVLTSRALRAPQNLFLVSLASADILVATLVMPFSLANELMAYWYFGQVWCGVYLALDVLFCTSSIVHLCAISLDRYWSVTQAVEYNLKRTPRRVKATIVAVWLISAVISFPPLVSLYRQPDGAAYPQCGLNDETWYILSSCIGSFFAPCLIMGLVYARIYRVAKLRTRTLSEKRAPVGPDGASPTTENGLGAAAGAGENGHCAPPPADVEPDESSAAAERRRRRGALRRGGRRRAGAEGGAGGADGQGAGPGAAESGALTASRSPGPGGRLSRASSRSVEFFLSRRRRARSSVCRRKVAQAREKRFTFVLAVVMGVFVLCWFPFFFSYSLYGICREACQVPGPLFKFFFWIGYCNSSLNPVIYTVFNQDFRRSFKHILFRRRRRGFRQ
Protocol: as §2, §3

hERG potassium channels = hERG potassium channels (Homo sapiens, UniProt Q12809); assay: hERG potassium channel block, electrophysiology (IonWorks Quattro), CHO cells
Protocol: Ability to block hERG potassium channels was determined using the electrophysiological method and cloned hERG potassium channels (KCNH2 gene, expressed in CHO cells) as biological material. The effects were evaluated using IonWorks™ Quattro system (MDS-AT).
hERG current was elicited using a pulse pattern with fixed amplitudes (conditioning prepulse: −80 mV for 25 ms; test pulse: +40 mV for 80 ms) from a holding potential of 0 mV. hERG current was measured as a difference between the peak current at 1 ms after the test step to +40 mV and the steady-state current at the end of the step to +40 mV.
Data acquisition and analyses was performed using the IonWorks Quattro™ system operation software (version 2.0.2; Molecular Devices Corporation, Union City, Calif.). Data were corrected for leak current.

[3] = biological target: histaminergic H1 receptor (Homo sapiens, UniProt P35367); assay: Cellular functional assay, histaminergic H1 receptor (agonism/antagonism); format: cell-based; conditions: for activation at 1 µM: agonist effect, percent of control specific agonist response, compounds tested at 1×10^−6M, read-out: H1 -ag [%]; for inhibition at 1 µM: read-out: H1 -antag. [%]
Protocol: as §2, §3

[4] = biological target: T3, serotoninergic receptor 5-HT2C (Homo sapiens, UniProt P28335); assay: Binding assay 5-HT2C (h), [3H]mesulergine, HEK-293 cells; conditions: read-out: 5-HT2C [%]
T3 construct: expressed in transfected cells; host or cells: HEK-293 cells
T3 sequence (P28335 33-458): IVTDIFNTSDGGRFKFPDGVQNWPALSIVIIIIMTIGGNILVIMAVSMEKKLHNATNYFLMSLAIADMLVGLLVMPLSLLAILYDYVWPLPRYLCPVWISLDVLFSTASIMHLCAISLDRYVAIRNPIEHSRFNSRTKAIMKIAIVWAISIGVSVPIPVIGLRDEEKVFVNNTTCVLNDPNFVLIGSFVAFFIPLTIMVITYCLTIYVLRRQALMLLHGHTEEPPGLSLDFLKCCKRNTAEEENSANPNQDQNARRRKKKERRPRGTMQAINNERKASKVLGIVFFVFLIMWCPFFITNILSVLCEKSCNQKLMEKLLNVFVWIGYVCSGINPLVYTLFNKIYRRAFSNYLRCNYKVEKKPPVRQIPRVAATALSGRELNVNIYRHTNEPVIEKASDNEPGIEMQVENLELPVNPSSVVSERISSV
Method in brief: as §1

[5] = biological target: T4, serotoninergic 5-HT1A receptor (Homo sapiens, UniProt P08908); assay: Binding assay 5-HT1A (h), [3H]8-OH-DPAT, HEK-293 cells; set-up: expressed in transfected cells; host or cells: HEK-293 cells; conditions: read-out: 5-HT1A
T4 sequence (P08908 1-422): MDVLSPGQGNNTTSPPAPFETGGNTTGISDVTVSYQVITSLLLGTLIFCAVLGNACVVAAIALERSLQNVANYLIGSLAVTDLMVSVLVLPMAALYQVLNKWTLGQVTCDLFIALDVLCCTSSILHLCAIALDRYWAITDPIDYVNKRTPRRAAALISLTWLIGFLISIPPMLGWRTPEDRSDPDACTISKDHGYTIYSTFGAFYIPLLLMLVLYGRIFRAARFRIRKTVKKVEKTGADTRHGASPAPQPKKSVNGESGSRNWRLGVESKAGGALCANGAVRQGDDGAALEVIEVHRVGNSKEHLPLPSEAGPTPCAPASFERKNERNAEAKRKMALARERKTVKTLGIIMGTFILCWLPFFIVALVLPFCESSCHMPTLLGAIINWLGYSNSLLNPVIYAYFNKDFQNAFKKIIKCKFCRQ
Method in brief: as §1

[6] = biological target: T4, serotoninergic 5-HT1A receptor; assay: Cellular functional assay, serotoninergic 5-HT1A receptor (agonism/antagonism); format: cell-based; conditions: for inhibition at 1 µM: CHO, read-out: 5-HT1A-antag. [%]; for activation at 1 µM: agonist effect, percent of control specific agonist response (100 nM 8-OH-DPAT for control), 1×10^−6 M, 5-HT1A (h), CHO cells, read-out: 5-HT1A-ag [%]
Protocol: as §2, §3

[7] = % block of hERG current, cloned hERG channels in CHO cells, IonWorks Quattro

Chain of dopaminergic D3 receptor (P35462 whole entry): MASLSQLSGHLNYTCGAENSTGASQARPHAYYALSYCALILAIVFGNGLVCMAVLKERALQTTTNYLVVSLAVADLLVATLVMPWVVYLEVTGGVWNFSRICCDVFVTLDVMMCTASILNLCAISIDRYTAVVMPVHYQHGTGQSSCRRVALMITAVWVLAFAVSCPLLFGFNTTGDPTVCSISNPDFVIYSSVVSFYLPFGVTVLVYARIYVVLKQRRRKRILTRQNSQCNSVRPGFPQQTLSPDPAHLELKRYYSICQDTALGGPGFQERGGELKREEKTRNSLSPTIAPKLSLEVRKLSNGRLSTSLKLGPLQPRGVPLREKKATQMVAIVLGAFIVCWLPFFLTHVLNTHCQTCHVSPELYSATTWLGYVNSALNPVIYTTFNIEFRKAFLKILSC
Chain of histaminergic H1 receptor (P35367 whole entry): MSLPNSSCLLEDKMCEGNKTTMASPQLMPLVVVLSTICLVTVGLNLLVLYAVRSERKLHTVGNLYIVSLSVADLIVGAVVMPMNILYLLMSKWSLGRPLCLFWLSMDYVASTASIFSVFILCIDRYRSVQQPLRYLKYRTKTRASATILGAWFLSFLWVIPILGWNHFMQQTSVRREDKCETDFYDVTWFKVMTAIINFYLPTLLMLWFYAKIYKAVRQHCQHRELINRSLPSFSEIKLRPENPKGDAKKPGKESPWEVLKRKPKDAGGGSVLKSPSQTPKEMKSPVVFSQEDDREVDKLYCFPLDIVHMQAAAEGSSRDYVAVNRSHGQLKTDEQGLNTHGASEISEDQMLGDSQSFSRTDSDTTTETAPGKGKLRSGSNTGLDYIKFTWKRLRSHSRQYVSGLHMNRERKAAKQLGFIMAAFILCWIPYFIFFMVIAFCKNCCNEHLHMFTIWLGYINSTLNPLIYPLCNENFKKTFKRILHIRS
Chain of hERG potassium channels (Q12809 whole entry): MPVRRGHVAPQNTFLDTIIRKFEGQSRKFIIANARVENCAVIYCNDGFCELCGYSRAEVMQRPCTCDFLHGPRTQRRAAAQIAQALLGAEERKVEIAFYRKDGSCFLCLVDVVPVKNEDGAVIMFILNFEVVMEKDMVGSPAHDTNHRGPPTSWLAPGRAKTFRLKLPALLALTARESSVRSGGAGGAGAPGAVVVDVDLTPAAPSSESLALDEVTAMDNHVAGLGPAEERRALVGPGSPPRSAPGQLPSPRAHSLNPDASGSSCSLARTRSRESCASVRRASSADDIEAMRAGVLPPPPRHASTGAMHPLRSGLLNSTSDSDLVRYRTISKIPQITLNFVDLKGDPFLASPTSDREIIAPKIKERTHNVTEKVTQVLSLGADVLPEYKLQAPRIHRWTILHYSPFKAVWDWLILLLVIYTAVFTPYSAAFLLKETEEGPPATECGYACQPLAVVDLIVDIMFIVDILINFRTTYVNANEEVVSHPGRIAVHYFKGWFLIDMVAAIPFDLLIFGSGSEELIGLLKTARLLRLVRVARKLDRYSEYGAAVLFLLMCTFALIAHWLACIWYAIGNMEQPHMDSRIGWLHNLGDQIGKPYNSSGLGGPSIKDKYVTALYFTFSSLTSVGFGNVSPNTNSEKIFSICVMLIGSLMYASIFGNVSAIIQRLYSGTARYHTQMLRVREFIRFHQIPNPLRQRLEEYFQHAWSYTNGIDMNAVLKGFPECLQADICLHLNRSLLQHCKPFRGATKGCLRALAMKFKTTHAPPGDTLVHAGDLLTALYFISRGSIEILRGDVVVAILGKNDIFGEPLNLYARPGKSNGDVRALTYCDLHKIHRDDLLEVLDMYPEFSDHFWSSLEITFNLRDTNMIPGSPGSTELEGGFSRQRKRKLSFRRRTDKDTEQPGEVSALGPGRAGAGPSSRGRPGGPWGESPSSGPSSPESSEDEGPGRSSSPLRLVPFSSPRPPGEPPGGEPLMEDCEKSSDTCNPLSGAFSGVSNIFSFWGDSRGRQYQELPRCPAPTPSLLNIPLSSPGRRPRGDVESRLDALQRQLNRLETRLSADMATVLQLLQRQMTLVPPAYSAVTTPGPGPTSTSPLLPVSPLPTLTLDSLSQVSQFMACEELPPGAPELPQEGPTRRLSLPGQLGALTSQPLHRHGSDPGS
T1 sequence (P50406 whole entry): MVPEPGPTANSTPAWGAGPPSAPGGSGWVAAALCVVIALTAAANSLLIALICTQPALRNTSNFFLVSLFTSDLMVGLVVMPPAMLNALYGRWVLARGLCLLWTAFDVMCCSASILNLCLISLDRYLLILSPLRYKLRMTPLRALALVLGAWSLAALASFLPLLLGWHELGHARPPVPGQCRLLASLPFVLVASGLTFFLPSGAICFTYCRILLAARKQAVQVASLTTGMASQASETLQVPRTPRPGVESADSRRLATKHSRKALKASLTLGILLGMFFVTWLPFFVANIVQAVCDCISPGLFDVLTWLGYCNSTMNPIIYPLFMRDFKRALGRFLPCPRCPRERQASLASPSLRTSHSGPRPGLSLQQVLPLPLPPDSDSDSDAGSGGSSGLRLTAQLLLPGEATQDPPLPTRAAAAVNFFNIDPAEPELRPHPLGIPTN

| Structure (SMILES) | inhibition at 1 µM (dopaminergic D3 receptor) [%] | inhibition at 1 µM [1] [%] | activation at 1 µM [2] [%] | inhibition at 1 µM [2] [%] | activation at 1 µM (adrenergic α2C receptor) [%] | inhibition at 1 µM (adrenergic α2C receptor) [%] | hERG [%] (hERG potassium channels; [7]) | activation at 1 µM [3] [%] | inhibition at 1 µM [3] [%] | inhibition at 1 µM [4] [%] | inhibition at 1 µM [5] [%] | hERG [%] (hERG potassium channels) | inhibition at 1 µM [6] [%] | activation at 1 µM [6] [%] |
| --- | --- | --- | --- | --- | --- | --- | --- | --- | --- | --- | --- | --- | --- | --- |
| O=S(=O)(NCCCCN1CCN(c2nsc3ccccc23)CC1)c1cccc2ccccc12 [Compound 1, N-(4-(4-(1,2-Benzothiazol-3-yl)piperazin-1-yl)butyl)naphthalene-1-sulphonamide] | 96 | 95 | 1 | 39 | -9 | 7 | 16 | 0 | 51 | 80 | 96 |  |  |  |
| Cc1cccc(S(=O)(=O)NCCCCN2CCN(c3nsc4ccccc34)CC2)c1 [Compound 3, N-(4-(4-(1,2-Benzothiazol-3-yl)piperazin-1-yl)butyl)-3-methylbenzenesulphonamide] | 98 | 83 |  | 22 |  |  |  |  |  | 77 | 98 | 17 |  |  |
| O=S(=O)(NCCCCN1CCN(c2noc3ccccc23)CC1)c1ccc2ccccc2c1 [Compound 14, N-(4-(4-(1,2-Benzoxazol-3-yl)piperazin-1-yl)butyl)naphthalene-2-sulphonamide] | 97 | 99 | 1 | 69 | -3 | 12 | −1.4 |  |  | 51 | 88 |  |  |  |
| O=S(=O)(NCCCCN1CCN(c2cccc3[nH]ccc23)CC1)c1cnc2ccccn12 [Compound 30, N-{4-[4-(1H-Indol-4-yl)piperazin-1-yl]butyl}-imidazo[1,2-a]pyridine-3-sulphonamide] | 98 | 5 |  |  | 18 | 35 | −3 |  |  | 11 | 100 |  | 86 | 22 |
| Cc1c(S(=O)(=O)NCCCCN2CCC(c3noc4cc(F)ccc34)CC2)sc2ccc(F)cc12 [Compound 101, 5-Fluoro-N-[4-[4-(6-fluoro-1,2-benzoxazol-3-yl)piperidin-1-yl]butyl]-3-methylbenzothiophene-2-sulphonamide] | 92 | 98 | -2 | 103 | 1 | 46 | 14 | 33 | 94 | 80 | 82 |  |  |  |
| O=S(=O)(NCCCCN1CCN(c2cccc3[nH]ccc23)CC1)c1cccc(Cl)c1 [Compound 113, N-[4-[4-(1H-Indol-4-yl)piperazin-1-yl]butyl]-3-chlorobenzenesulphonamide] | 99 | 74 |  |  | 13 | 53 | 16 |  |  | 10 | 100 |  | 92 | 32 |
| O=S(=O)(NCCCCN1CCN(c2nsc3ccccc23)CC1)c1cc2ccc(Cl)cc2s1 [Compound 241, N-[4-[4-(1,2-Benzothiazol-3-yl)piperazin-1-yl]butyl]-6-chlorobenzothiophene-2-sulphonamide] | 97 | 96 | 0 | 69 | -1 | 14 |  | 1 | 47 | 96 | 98 |  | 42 | 5 |
| O=S(=O)(NCCCN1CCC(c2noc3cc(F)ccc23)CC1)c1ccc(F)c(Cl)c1 [Compound 331, 3-Chloro-4-fluoro-N-[3-[4-(6-fluoro-1,2-benzoxazol-3-yl)piperidin-1-yl]propyl]benzenesulphonamide] | 100 | 97 | -1 | 98 | -14 | 7 | 32 | 2 | 85 | 82 | 82 |  |  |  |
| N#Cc1cccc(S(=O)(=O)NCCCN2CCC(c3noc4cc(F)ccc34)CC2)c1 [Compound 338, 3-cyano-N-[3-[4-(6-fluoro-1,2-benzoxazol-3-yl)piperidin-1-yl]propyl]benzenesulphonamide] | 100 | 94 | 0 | 88 | -3 | 9 | 40.5 | 1 | 51 | 76 | 80 |  |  |  |
| O=S(=O)(NCCCCN1CCN(c2cccc3[nH]ccc23)CC1)c1ccc2cc(Cl)ccc2c1 [Compound 358, 6-Chloro-N-[4-[4-(1H-indol-4-yl)piperazin-1-yl]butyl]naphthalene-2-sulphonamide] | 99 | 70 |  |  | 28 | 48 | 0 |  |  | 62 | 100 |  | 70 | 22 |
| O=S(=O)(NCCCCN1CCN(c2cccc3[nH]ccc23)CC1)c1ccc(F)cc1 [Compound 359, 4-Fluoro-N-[4-[4-(1H-indol-4-yl)piperazin-1-yl]butyl]benzenesulphonamide] | 100 | 42 |  |  | 13 | 38 | 9 |  |  | 12 | 100 |  | 94 | 22 |
| O=S(=O)(NCCCCN1CCN(c2cccc3[nH]ccc23)CC1)c1cc2ccc(Cl)cc2s1 [Compound 363, 6-Chloro-N-[4-[4-(1H-indol-4-yl)piperazin-1-yl]butyl]benzothiophene-2-sulphonamide] | 101 | 84 |  |  | 17 | 42 | 0 |  |  | 57 | 101 |  | 27 | 78 |
